Data from patent US11780821B2, “Inhibitors of fibroblast activation protein” (Praxis Biotech LLC, priority 2017, dated 2023).
Where two headings read alike, the source gives them in different places.

Assays:
Format in all cases: biochemical
[1] = molecular target: T1, recombinant mouse FAPα (rmFAPα) (Mus musculus, UniProt P97321); test: FAPα enzymatic exopeptidase (dipeptidase) activity assay; details: 1 μM test compound; Z-Gly-Pro-AMC substrate; read-out: rmFAPα (% exo inh @ 1 μM)
T1 construct: purchased R&S system (so in the source)
T1 sequence (P97321 1-761): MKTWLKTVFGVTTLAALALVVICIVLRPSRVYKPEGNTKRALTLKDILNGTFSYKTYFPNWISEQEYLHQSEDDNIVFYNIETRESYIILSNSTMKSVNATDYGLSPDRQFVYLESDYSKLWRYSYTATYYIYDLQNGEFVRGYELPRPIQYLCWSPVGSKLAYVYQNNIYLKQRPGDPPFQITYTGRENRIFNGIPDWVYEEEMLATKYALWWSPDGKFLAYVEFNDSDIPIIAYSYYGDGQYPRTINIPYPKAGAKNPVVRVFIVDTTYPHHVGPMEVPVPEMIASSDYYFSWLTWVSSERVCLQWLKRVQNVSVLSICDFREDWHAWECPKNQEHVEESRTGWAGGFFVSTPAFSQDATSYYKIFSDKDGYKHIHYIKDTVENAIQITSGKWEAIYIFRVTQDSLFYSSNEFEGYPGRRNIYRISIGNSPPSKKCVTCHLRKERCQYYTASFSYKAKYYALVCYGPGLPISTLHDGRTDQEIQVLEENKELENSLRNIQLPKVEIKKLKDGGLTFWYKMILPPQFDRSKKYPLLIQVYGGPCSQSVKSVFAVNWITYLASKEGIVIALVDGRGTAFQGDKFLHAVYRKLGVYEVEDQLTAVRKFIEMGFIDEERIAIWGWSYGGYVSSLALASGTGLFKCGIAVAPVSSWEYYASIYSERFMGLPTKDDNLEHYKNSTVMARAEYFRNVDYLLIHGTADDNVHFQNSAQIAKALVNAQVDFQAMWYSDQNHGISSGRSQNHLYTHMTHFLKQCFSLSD
Description: FAPα enzymatic exopeptidase (dipeptidase) activity assay. […] 7-Amino-4-Methylcoumarin (AMC) release was detected by measuring fluorescence at Ex/Em 380/460 nm using a Multifunction Microplate Reader (Synergy 4, Biotek). All measurements were carried out in duplicate. […] For the calculations, the average measurements from reactions containing only vehicle and substrate, without enzyme, were used as a blank and were subtracted from the rest of the measurements. Percent inhibition was calculated using the average measurements from reactions containing vehicle, enzyme, and substrate as the maximum of enzymatic activity. Measurements were performed as a single point.

[2] = molecular target: T2, recombinant human FAPα (rhFAPα) (Homo sapiens, UniProt Q12884); test: as above; details: for IC50: exopeptidase, read-out: rhFAPα (exo IC50)
T2 construct: purchased R&S system (so in the source)
T2 sequence (Q12884 1-760): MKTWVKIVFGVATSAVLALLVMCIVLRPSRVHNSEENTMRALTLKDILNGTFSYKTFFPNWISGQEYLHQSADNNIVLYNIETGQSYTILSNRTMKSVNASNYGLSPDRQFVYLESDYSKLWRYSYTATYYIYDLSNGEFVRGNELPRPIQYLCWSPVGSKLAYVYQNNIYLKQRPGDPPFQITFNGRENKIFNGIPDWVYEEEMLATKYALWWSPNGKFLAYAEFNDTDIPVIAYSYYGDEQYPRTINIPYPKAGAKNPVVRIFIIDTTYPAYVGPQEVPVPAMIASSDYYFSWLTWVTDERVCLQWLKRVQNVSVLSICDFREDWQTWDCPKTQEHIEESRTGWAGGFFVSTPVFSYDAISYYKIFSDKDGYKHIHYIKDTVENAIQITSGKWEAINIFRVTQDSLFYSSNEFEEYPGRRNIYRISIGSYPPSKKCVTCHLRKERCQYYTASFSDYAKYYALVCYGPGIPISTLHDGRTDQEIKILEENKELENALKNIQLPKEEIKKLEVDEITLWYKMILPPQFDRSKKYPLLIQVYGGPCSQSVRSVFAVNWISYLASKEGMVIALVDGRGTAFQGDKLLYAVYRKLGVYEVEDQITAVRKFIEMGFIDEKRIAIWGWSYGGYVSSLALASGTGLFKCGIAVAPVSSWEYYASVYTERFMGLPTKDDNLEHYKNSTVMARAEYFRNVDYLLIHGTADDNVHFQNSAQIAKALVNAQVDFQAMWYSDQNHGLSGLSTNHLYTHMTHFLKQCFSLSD

[3] = molecular target: T3, recombinant mouse PREP (rmPREP) (Mus musculus, UniProt Q9QUR6); test: PREP enzymatic activity assay; details: Z-Gly-Pro-AMC substrate
T3 construct: purchased R&S system (so in the source)
T3 sequence (Q9QUR6 whole entry): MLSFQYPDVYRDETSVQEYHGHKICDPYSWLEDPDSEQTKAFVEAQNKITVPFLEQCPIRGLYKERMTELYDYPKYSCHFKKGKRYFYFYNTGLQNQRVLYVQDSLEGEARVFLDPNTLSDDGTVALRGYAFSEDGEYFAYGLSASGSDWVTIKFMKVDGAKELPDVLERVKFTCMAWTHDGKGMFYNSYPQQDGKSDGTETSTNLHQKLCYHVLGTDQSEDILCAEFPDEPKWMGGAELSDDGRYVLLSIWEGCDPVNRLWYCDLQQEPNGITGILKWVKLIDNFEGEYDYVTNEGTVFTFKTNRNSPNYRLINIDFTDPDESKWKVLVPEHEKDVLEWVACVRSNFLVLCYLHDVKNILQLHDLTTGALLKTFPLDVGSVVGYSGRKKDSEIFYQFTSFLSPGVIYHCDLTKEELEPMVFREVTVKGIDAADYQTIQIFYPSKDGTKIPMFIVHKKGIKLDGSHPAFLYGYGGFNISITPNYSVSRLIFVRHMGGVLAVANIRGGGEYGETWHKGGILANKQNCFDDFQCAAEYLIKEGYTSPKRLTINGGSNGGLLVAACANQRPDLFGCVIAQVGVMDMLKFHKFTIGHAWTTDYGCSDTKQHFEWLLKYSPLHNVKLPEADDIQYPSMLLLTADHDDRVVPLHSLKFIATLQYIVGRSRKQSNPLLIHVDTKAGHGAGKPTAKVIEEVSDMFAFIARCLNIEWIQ
Description: (§1) 7-Amino-4-Methylcoumarin (AMC) release was detected by measuring fluorescence at Ex/Em 380/460 nm using a Multifunction Microplate Reader (Synergy 4, Biotek). All measurements were carried out in triplicate.

[4] = molecular target: T4, recombinant mouse DPPIV (rmDPPIV) (Mus musculus, UniProt P28843); test: DPPIV enzymatic activity assay; details: H-Gly-Pro-pNA substrate
T4 construct: purchased R&S system (so in the source)
T4 sequence (P28843 whole entry): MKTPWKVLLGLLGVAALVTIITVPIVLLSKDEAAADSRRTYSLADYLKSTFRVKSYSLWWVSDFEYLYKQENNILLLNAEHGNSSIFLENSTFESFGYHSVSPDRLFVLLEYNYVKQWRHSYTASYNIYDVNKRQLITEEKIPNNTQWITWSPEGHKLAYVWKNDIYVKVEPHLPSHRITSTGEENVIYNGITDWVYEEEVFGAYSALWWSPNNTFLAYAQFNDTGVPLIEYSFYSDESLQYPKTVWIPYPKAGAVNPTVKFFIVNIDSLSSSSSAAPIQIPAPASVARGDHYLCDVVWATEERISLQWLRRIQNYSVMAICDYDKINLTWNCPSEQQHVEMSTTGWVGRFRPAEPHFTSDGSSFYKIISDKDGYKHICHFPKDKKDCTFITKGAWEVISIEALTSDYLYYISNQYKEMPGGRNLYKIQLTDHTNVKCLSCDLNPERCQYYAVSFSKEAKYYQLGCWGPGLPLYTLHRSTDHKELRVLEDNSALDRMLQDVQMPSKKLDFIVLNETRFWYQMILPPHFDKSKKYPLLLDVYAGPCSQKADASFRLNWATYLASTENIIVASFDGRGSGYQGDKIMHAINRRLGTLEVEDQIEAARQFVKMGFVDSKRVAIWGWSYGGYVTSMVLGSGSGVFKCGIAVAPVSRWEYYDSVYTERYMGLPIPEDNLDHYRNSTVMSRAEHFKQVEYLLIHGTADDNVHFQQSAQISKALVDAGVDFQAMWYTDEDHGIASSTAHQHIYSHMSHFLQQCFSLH

[5] = molecular target: T5, recombinant human PREP (rhPREP) (Homo sapiens, UniProt P48147); test: PREP enzymatic activity assay; details: Z-Gly-Pro-AMC substrate
T5 sequence (P48147 1-710): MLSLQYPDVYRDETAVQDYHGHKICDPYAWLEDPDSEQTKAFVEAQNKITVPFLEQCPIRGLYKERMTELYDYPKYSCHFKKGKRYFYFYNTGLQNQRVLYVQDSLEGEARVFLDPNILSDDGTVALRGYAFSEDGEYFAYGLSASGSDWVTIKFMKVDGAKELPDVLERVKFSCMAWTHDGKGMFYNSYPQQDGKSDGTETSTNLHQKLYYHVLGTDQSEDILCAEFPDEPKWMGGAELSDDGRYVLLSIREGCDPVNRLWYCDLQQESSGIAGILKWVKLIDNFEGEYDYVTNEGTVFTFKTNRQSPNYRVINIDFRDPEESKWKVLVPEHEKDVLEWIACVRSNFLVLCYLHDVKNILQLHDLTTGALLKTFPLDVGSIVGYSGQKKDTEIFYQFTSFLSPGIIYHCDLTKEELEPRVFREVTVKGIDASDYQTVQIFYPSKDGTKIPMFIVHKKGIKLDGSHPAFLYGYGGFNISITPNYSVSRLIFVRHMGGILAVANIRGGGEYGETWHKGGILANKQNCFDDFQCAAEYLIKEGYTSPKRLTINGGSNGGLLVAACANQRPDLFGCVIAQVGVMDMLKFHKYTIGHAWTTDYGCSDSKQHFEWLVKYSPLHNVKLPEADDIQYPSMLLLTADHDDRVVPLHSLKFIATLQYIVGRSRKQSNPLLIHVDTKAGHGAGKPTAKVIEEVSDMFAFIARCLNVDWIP
Description: as §1

[6] = molecular target: T1, recombinant mouse FAPα (rmFAPα); test: FAPα enzymatic exopeptidase (dipeptidase) activity assay; details: for IC50: exopeptidase, read-out: rmFAPα (exo IC50)
[7] = molecular target: T6, recombinant human DPPIV (rhDPPIV) (Homo sapiens, UniProt P27487); test: DPPIV enzymatic activity assay; details: H-Gly-Pro-pNA substrate
T6 construct: purchased R&S system (so in the source)
T6 sequence (P27487 whole entry): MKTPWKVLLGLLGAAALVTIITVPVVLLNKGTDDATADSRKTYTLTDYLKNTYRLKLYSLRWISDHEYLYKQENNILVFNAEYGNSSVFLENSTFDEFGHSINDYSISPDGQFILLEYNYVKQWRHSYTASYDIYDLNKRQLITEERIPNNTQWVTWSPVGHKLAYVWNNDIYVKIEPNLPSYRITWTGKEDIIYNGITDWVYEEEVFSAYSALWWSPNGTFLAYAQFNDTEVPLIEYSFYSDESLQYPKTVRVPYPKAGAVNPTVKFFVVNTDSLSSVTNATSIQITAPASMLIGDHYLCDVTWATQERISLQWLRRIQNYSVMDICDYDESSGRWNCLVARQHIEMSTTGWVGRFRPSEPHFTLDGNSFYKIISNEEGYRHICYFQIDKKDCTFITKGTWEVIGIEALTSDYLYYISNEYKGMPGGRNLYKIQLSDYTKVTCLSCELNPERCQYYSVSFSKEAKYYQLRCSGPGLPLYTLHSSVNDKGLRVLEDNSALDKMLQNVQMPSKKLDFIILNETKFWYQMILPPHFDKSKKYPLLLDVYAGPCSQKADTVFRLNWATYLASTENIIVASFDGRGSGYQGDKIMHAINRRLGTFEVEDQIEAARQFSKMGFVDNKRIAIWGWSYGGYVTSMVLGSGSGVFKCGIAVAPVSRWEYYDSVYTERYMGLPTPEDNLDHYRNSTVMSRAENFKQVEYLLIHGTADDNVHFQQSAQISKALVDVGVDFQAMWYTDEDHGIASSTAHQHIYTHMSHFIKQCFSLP

[8] = molecular target: T7, recombinant human DPP9 (rhDPP9) (Homo sapiens, UniProt Q86TI2); test: DPP9 enzymatic activity assay; details: H-Gly-Pro-AMC substrate
T7 construct: purchased R&S system (so in the source)
T7 sequence (Q86TI2 whole entry): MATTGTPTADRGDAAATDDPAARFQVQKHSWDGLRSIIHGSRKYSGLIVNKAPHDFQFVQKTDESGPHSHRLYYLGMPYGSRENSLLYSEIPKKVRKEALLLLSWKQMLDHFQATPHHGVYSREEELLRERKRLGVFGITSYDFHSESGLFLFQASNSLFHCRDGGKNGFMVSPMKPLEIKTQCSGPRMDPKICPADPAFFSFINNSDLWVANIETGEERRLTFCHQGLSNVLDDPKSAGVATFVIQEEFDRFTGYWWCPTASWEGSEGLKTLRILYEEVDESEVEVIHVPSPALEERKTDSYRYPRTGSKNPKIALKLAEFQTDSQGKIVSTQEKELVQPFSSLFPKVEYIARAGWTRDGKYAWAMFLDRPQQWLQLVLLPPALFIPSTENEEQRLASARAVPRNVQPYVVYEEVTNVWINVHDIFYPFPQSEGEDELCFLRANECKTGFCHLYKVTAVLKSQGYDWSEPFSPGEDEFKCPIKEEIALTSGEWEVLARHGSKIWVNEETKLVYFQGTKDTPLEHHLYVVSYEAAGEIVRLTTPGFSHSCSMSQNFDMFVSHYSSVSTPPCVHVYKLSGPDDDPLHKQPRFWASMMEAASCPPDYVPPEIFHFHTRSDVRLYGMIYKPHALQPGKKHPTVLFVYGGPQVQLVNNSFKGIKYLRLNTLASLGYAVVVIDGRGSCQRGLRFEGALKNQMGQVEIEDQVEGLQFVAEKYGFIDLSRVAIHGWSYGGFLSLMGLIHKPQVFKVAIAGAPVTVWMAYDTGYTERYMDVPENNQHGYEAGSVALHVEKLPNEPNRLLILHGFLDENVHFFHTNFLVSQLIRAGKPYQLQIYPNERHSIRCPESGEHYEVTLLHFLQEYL
Description: as §1

Row | SMILES | inhibition at 1 µM [1] [%] | IC50 ([2]; Table 2, Z-Gly-Pro-AMC) [µM] | IC50 [4] [µM] | other results
1 | N#C[C@@H]1CC(F)(F)CN1C(=O)CNC(=O)c1ccc2nc(O)ccc2c1 [Compound 10, (S)—N-(2-(2-cyano-4,4-difluoropyrrolidin-1-yl)-2-oxoethyl)-2-hydroxyquinoline-6-carboxamide] | 25 to 50 | – | – | –
2 | N#C[C@@H]1CC(F)(F)CN1C(=O)CNC(=O)c1ccc(C(N)=O)cc1 [Compound 11, (S)—N-(2-(2-cyano-4,4-difluoropyrrolidin-1-yl)-2-oxoethyl)terephthalamide] | 25 to 50 | – | – | –
3 | N#Cc1ccc(C(=O)NCC(=O)N2CC(F)(F)C[C@H]2C#N)cc1C(F)(F)F [Compound 12, (S)-4-cyano-N-(2-(2-cyano-4,4-difluoropyrrolidin-1-yl)-2-oxoethyl)-3-(trifluoromethyl)benzamide] | 25 to 50 | – | – | –
4 | Cn1cc(C(=O)NCC(=O)N2CC(F)(F)C[C@H]2C#N)ccc1=O [Compound 16, (S)—N-(2-(2-cyano-4,4-difluoropyrrolidin-1-yl)-2-oxoethyl)-1-methyl-6-oxo-1,6-dihydropyridine-3-carboxamide] | – | < 1 | > 10 | IC50 ([2]; Table 3): < 1 µM; inhibition at 1 µM ([2]; read-out: rhFAPα (% exo inh @ 1 μM)): > 50%; IC50 [3]: > 10 µM
5 | N#C[C@@H]1CC(F)(F)CN1C(=O)CNC(=O)c1cn(-c2ccccc2)c(=O)c2ccccc12 [Example 2, (S)—N-(2-(2-cyano-4,4-difluoropyrrolidin-1-yl)-2-oxoethyl)-1-oxo-2-phenyl-1,2-dihydroisoquinoline-4-carboxamide] | 25 to 50 | – | – | –
6 | N#C[C@@H]1CC(F)(F)CN1C(=O)CNC(=O)c1cn(C2CC2)c(=O)c2ccccc12 [Example 3, (S)—N-(2-(2-cyano-4,4-difluoropyrrolidin-1-yl)-2-oxoethyl)-2-cyclopropyl-1-oxo-1,2-dihydroisoquinoline-4-carboxamide] | 25 to 50 | – | – | –
7 | N#C[C@@H]1CC(F)(F)CN1C(=O)CNC(=O)c1ccc2ncccc2c1 [Example 4, (S)—N-(2-(2-cyano-4,4-difluoropyrrolidin-1-yl)-2-oxoethyl)quinoline-6-carboxamide] | > 50 | < 1 | 1 to 10 | IC50 [5]: > 10 µM; IC50 [3]: > 10 µM; IC50 ([6]; Table 2, Z-Gly-Pro-AMC): < 1 µM; IC50 ([6]; Table 3): < 1 µM; IC50 [7]: > 10 µM
8 | N#C[C@@H]1CC(F)(F)CN1C(=O)CNC(=O)c1ncnc2c1CCC2 [Example 5, (S)—N-(2-(2-cyano-4,4-difluoropyrrolidin-1-yl)-2-oxoethyl)-6,7-dihydro-5H-cyclopenta[d]pyrimidine-4-carboxamide] | < 25 | – | – | –
9 | N#C[C@@H]1CC(F)(F)CN1C(=O)CNC(=O)c1ccc(=O)[nH]c1 [Example 6, (S)—N-(2-(2-cyano-4,4-difluoropyrrolidin-1-yl)-2-oxoethyl)-6-oxo-1,6-dihydropyridine-3-carboxamide] | – | < 1 | > 10 | IC50 ([6]; Table 2, Z-Gly-Pro-AMC): < 1 µM; IC50 ([6]; Table 3): < 1 µM; inhibition at 1 µM ([6]; read-out: rmFAPα (% exo inh @ 1 μM)): > 50%; IC50 [7]: > 10 µM
10 | N#C[C@@H]1CC(F)(F)CN1C(=O)CNC(=O)C1Cc2ccccc2C1 [Example 7, (S)—N-(2-(2-cyano-4,4-difluoropyrrolidin-1-yl)-2-oxoethyl)-2,3-dihydro-1H-indene-2-carboxamide] | < 25 | – | – | –
11 | N#C[C@@H]1CC(F)(F)CN1C(=O)CNC(=O)N1Cc2ccccc2C1 [Example 8, (S)—N-(2-(2-cyano-4,4-difluoropyrrolidin-1-yl)-2-oxoethyl) isoindoline-2-carboxamide] | < 25 | – | – | –
12 | Cn1cc(C(=O)NCC(=O)N2CC(F)(F)C[C@H]2C#N)c2ccccc2c1=O [Example 9, (S)—N-(2-(2-cyano-4,4-difluoropyrrolidin-1-yl)-2-oxoethyl)-2-methyl-1-oxo-1,2-dihydroisoquinoline-4-carboxamide] | > 50 | < 1 | > 10 | IC50 ([2]; Table 3): < 1 µM; IC50 [3]: < 1 µM; IC50 [8]: > 10 µM; IC50 ([6]; Table 2, Z-Gly-Pro-AMC): < 1 µM; IC50 ([6]; Table 3): < 1 µM
